Patent US11820773B2, “Tricyclic compounds” (ALIGOS THERAPEUTICS, INC., priority 2020, dated 2023)

test system: HBV; experiment: HBV-DNA antiviral assay using HepG2.117 cells (intracellular HBV DNA by qPCR); type: cell-based, genotype D HBV; details: HBV DNA inhibition, 3 days incubation, 2% DMSO
Method in brief: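 Endpoints are intracellular HBV DNA by qPCR (interpolated from a gBlock standard curve) and ATP-based viability in duplicate plates. Doxycycline-free HepG2.117 Tet-off cells received compounds (9 concentrations, 4-fold steps, 2% DMSO) for 3 days. Inhibition normalised to DMSO wells; EC50/EC90/CC50 by curve fitting.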

For `CNC(=O)c1ccc(-n2c(=O)c3c(n4ncc(CC5CC5)c24)CN(C(=O)c2ccc(Br)c(C(F)(F)F)c2)C(C)C3)cc1` (racemic) [Compound 21b, N-methyl-4-[rac-(11S)-12-[4-bromo-3-(trifluoromethyl)benzoyl]-5-(cyclopropylmethyl)-11-methyl-8-oxo-2,3,7,12-tetrazatricyclo[7.4.0.0^2,6]trideca-1(9),3,5-trien-7-yl]benzamide], which EC50 is on record?
Its EC50 is 50 to 500 nM.

same assay, conditions: Hepatitis B virus, 72 h, HBV DNA inhibition, 3 days incubation, 2% DMSO

Which EC50 does the source give for `Cc1nnc(-c2ccc(-n3c(=O)c4c(n5ncc(Cc6ccccc6)c35)CN(C(=O)c3ccc(Br)c(C(F)(F)F)c3)[C@H](C)C4)cc2)[nH]1` (stereo in doubt) [Compound 47a, rac-(11R)-5-benzyl-12-[4-bromo-3-(trifluoromethyl)benzoyl]-11-methyl-7-[4-(5-methyl-4H-1,2,4-triazol-3-yl)phenyl]-2,3,7,12-tetrazatricyclo[7.4.0.0^2,6]trideca-1(9),3,5-trien-8-one] here?
The EC50 was less than 50 nM.

Which EC50 does the source give for `C[C@@H]1Cc2c(n3ncc(CC4CC4)c3n(-c3ccc(C(=O)N(C)CO)cc3)c2=O)CN1C(=O)c1ccc(Br)c(C(F)(F)F)c1` (stereo in doubt) [Compound 101, N-(hydroxymethyl)-N-methyl-4-[rac-(11R)-12-[4-bromo-3-(trifluoromethyl)benzoyl]-5-(cyclopropylmethyl)-11-methyl-8-oxo-2,3,7,12-tetrazatricyclo[7.4.0.0^2,6]trideca-1(9),3,5-trien-7-yl]benzamide] here?
The EC50 was 50 to 500 nM.

`Cc1ccnn1-c1ccc(-n2c(=O)c3c(n4ncc(Cc5ccccc5)c24)CN(C(=O)c2ccc(Br)c(Cl)c2)CC3)cc1` [Compound 12, 5-benzyl-12-(4-bromo-3-chloro-benzoyl)-7-[4-(5-methylpyrazol-1-yl)phenyl]-2,3,7,12-tetrazatricyclo[7.4.0.0^2,6]trideca-1(9),3,5-trien-8-one] was tested. Which EC50 did it give?
Its EC50 is less than 50 nM.

With `C[C@@H]1Cc2c(n3ncc(Cc4ccccc4)c3n(-c3ccc(-n4nnnc4C(F)(F)F)cc3)c2=O)CN1C(=O)c1ccc(Br)c(C(F)(F)F)c1` (stereo in doubt) [Compound 92a, rac-(11R)-5-benzyl-12-[4-bromo-3-(trifluoromethyl)benzoyl]-11-methyl-7-[4-[5-(trifluoromethyl)tetrazol-1-yl]phenyl]-2,3,7,12-tetrazatricyclo[7.4.0.0^2,6]trideca-1(9),3,5-trien-8-one] as the molecule, how does the EC50 read?
Its EC50 is less than 50 nM.

Which EC50 does the source give for `CNC(=O)c1cc(-n2c(=O)c3c(n4ncc(Cc5ccccc5)c24)CN(C(=O)c2ccc(Br)c(C(F)(F)F)c2)CC3)nn1C` [Compound 29, 5-[5-benzyl-12-[4-bromo-3-(trifluoromethyl)benzoyl]-8-oxo-2,3,7,12-tetrazatricyclo[7.4.0.0^2,6]trideca-1(9),3,5-trien-7-yl]-N,2-dimethyl-pyrazole-3-carboxamide] here?
Its EC50 is less than 50 nM.

How did the EC50 turn out when `CNC(=O)c1cnc(-n2c(=O)c3c(n4ncc(Cc5ccccc5)c24)CN(C(=O)c2ccc(Br)c(C(F)(F)F)c2)[C@@H](C)C3)nc1` (stereo in doubt) [Compound 69b, N-methyl-2-[rac-(11S)-5-benzyl-12-[4-bromo-3-(trifluoromethyl)benzoyl]-11-methyl-8-oxo-2,3,7,12-tetrazatricyclo[7.4.0.0^2,6]trideca-1(9),3,5-trien-7-yl]pyrimidine-5-carboxamide] was run?
The EC50 was less than 50 nM.

How did the EC50 turn out when `Cc1cnn(-c2ccc(-n3c(=O)c4c(n5ncc(CC(C)C)c35)CN(C(=O)c3ccc(Br)c(C(F)(F)F)c3)[C@@H](C)C4)cc2)c1` (stereo in doubt) [Compound 98b, rac-(11S)-12-[4-bromo-3-(trifluoromethyl)benzoyl]-5-isobutyl-11-methyl-7-[4-(4-methylpyrazol-1-yl)phenyl]-2,3,7,12-tetrazatricyclo[7.4.0.0^2,6]trideca-1(9),3,5-trien-8-one] was run?
The EC50 was 50 to 500 nM.

For `CNc1n[nH]c2cc(-n3c(=O)c4c(n5ncc(CC(C)C)c35)CN(C(=O)c3ccc(Br)c(C(F)(F)F)c3)[C@@H](C)C4)ccc12` (stereo in doubt) [Compound 61b, rac-(11S)-12-[4-bromo-3-(trifluoromethyl)benzoyl]-5-isobutyl-11-methyl-7-[3-(methylamino)-1H-indazol-6-yl]-2,3,7,12-tetrazatricyclo[7.4.0.0^2,6]trideca-1(9),3,5-trien-8-one], which EC50 is on record?
The EC50 was 50 to 500 nM.

`CN1Cc2cc(-n3c(=O)c4c(n5ncc(Cc6ccccc6)c35)CN(C(=O)c3ccc(Br)c(Cl)c3)CC4)ccc2C1=O` [Compound 15, 5-benzyl-12-(4-bromo-3-chloro-benzoyl)-7-(2-methyl-1-oxo-isoindolin-5-yl)-2,3,7,12-tetrazatricyclo[7.4.0.0^2,6]trideca-1(9),3,5-trien-8-one] was tested. Which EC50 did it give?
Its EC50 is less than 50 nM.

`C[C@@H]1Cc2c(n3ncc(CC4CCC4)c3n(-c3ccc(-c4nncn4C)cc3)c2=O)CN1C(=O)c1ccc(Cl)c(C(F)(F)F)c1` (stereo in doubt) [Compound 51a, rac-(11R)-12-[4-chloro-3-(trifluoromethyl)benzoyl]-5-(cyclobutylmethyl)-11-methyl-7-[4-(4-methyl-1,2,4-triazol-3-yl)phenyl]-2,3,7,12-tetrazatricyclo[7.4.0.0^2,6]trideca-1(9),3,5-trien-8-one] was tested. Which EC50 did it give?
The EC50 was less than 50 nM.

For `CCC[C@@H]1Cc2c(n3ncc(Cc4ccccc4)c3n(-c3ccc4c(NC)n[nH]c4c3)c2=O)CN1C(=O)c1ccc(Br)c(C(F)(F)F)c1` (stereo in doubt) [Compound 88a, rac-(11R)-5-benzyl-12-[4-bromo-3-(trifluoromethyl)benzoyl]-7-[3-(methylamino)-1H-indazol-6-yl]-11-propyl-2,3,7,12-tetrazatricyclo[7.4.0.0^2,6]trideca-1(9),3,5-trien-8-one], which EC50 is on record?
Its EC50 is less than 50 nM.

With `CNc1n[nH]c2cc(-n3c(=O)c4c(n5ncc(CC6CC6)c35)CN(C(=O)c3ccc(Br)c(Cl)c3)CC4)ccc12` [Compound 27, 12-(4-bromo-3-chloro-benzoyl)-5-(cyclopropylmethyl)-7-[3-(methylamino)-1H-indazol-6-yl]-2,3,7,12-tetrazatricyclo[7.4.0.0^2,6]trideca-1(9),3,5-trien-8-one] as the molecule, how does the EC50 read?
The EC50 was less than 50 nM.

How did the EC50 turn out when `CC(C)Cc1cnn2c3c(c(=O)n(-c4ccc5c(c4)nnn5C)c12)C[C@@H](C)N(C(=O)c1ccc(Br)c(C(F)(F)F)c1)C3` (stereo in doubt) [Compound 95a, rac-(11R)-12-[4-bromo-3-(trifluoromethyl)benzoyl]-5-isobutyl-11-methyl-7-(1-methylbenzotriazol-5-yl)-2,3,7,12-tetrazatricyclo[7.4.0.0^2,6]trideca-1(9),3,5-trien-8-one] was run?
The EC50 was less than 50 nM.

How did the EC50 turn out when `CC(C)Cc1cnn2c3c(c(=O)n(-c4ccc(-c5nncn5C)cc4)c12)C[C@H](C)N(C(=O)c1ccc(Br)c(Cl)c1)C3` (stereo in doubt) [Compound 68b, rac-(11S)-12-(4-bromo-3-chloro-benzoyl)-5-isobutyl-11-methyl-7-[4-(4-methyl-1,2,4-triazol-3-yl)phenyl]-2,3,7,12-tetrazatricyclo[7.4.0.0^2,6]trideca-1(9),3,5-trien-8-one] was run?
The EC50 was 50 to 500 nM.

For `Cc1nn[nH]c1-c1ccc(-n2c(=O)c3c(n4ncc(CC5CC5)c24)CN(C(=O)c2ccc(Br)c(C(F)(F)F)c2)[C@H](C)C3)cc1` (stereo in doubt) [Compound 75a, rac-(11R)-12-[4-bromo-3-(trifluoromethyl)benzoyl]-5-(cyclopropylmethyl)-11-methyl-7-[4-(4-methyl-1H-triazol-5-yl)phenyl]-2,3,7,12-tetrazatricyclo[7.4.0.0^2,6]trideca-1(9),3,5-trien-8-one], which EC50 is on record?
Its EC50 is less than 50 nM.

How did the EC50 turn out when `CNC(=O)c1cnc(-n2c(=O)c3c(n4ncc(CC(C)C)c24)CN(C(=O)c2ccc(Br)c(C(F)(F)F)c2)[C@H](C)C3)cn1` (stereo in doubt) [Compound 89a, N-methyl-5-[rac-(11R)-12-[4-bromo-3-(trifluoromethyl)benzoyl]-5-isobutyl-11-methyl-8-oxo-2,3,7,12-tetrazatricyclo[7.4.0.0^2,6]trideca-1(9),3,5-trien-7-yl]pyrazine-2-carboxamide] was run?
The EC50 was less than 50 nM.

For `C[C@@H]1Cc2c(n3ncc(CC4CC4)c3n(-c3ccc(-c4nncn4C)cc3)c2=O)CN1C(=O)c1ccc(Br)c(C(F)(F)F)c1` (stereo in doubt) [Compound 40a, rac-(11R)-12-[4-bromo-3-(trifluoromethyl)benzoyl]-5-(cyclopropylmethyl)-11-methyl-7-[4-(4-methyl-1,2,4-triazol-3-yl)phenyl]-2,3,7,12-tetrazatricyclo[7.4.0.0^2,6]trideca-1(9),3,5-trien-8-one], which EC50 is on record?
Its EC50 is less than 50 nM.

With `CNC(=O)c1ccc(-n2c(=O)c3c(n4ncc(CC(C)C)c24)CN(C(=O)c2ccc(Br)c(C(F)(F)F)c2)[C@H](C)C3)cc1` (stereo in doubt) [Compound 50a, N-methyl-4-[rac-(11R)-12-[4-bromo-3-(trifluoromethyl)benzoyl]-5-isobutyl-11-methyl-8-oxo-2,3,7,12-tetrazatricyclo[7.4.0.0^2,6]trideca-1(9),3,5-trien-7-yl]benzamide] as the molecule, how does the EC50 read?
The EC50 was less than 50 nM.

Which EC50 does the source give for `CNC(=O)c1cnc(-n2c(=O)c3c(n4ncc(Cc5ccccc5)c24)CN(C(=O)c2ccc(Br)c(C(F)(F)F)c2)[C@H](C)C3)cn1` (stereo in doubt) [Compound 73a, N-methyl-5-[rac-(11R)-5-benzyl-12-[4-bromo-3-(trifluoromethyl)benzoyl]-11-methyl-8-oxo-2,3,7,12-tetrazatricyclo[7.4.0.0^2,6]trideca-1(9),3,5-trien-7-yl]pyrazine-2-carboxamide] here?
The EC50 was less than 50 nM.

For `CNC(=O)c1ccc(-n2c(=O)c3c(n4ncc(CC(C)C)c24)CN(C(=O)c2ccc(Cl)c(C(F)(F)F)c2)[C@@H](C)C3)cc1` (stereo in doubt) [Compound 54b, N-methyl-4-[rac-(11S)-12-[4-chloro-3-(trifluoromethyl)benzoyl]-5-isobutyl-11-methyl-8-oxo-2,3,7,12-tetrazatricyclo[7.4.0.0^2,6]trideca-1(9),3,5-trien-7-yl]benzamide], which EC50 is on record?
Its EC50 is 50 to 500 nM.
